For this experiment, the system named is mouse femoral artery. Put plainly: Mouse femoral vessel diameter by ICG fluorescence angiography under topically applied acetylcholine. As to conditions: mouse femoral artery in vivo. As to the method:
In this example, a fluorescent dye (ICG) was injected into the vascular bed (via jugular cannulation in the mouse: via an infusion line in the langendorff perfused heart) and excited using radiation from a laser source (806 nm). The fluorescence (radiation) emitted by the dye (830 nm) was captured as a series of angiograms using a CCD camera. The camera relayed the angiograms to analog-to-digital conversion software running on a PC that digitized the angiograms. The digitized images were then analyzed both qualitatively (by viewing the monitor) and quantitatively. One example of quantitative evaluation that was undertaken was the determination of the mouse femoral artery diameter using software comprising a sub-pixel edge detection system running on the PC.
The foregoing fluorescence imaging technique was used on the mouse femoral artery in vivo. A more detailed explanation of each component of the apparatus, preparation of the animal, injection of ICG, and analytical method, are set forth in the following paragraphs.
The mouse was prepared by inducing anesthesia in an induction box using isoflurane (Ohmeda Pharmaceutical Products, Mississauga, ON, Canada) (4% in medical air, 4 L/min) and maintained by use of a facemask providing isoflurane at a rate of 1.5-2.0% in medical air (400 mL/min). During the experiment, the mouse was positioned on a thermostatted water blanket, with body temperature being monitored by a rectal temperature probe. To facilitate imaging of the vessels of interest, the thoracic, abdominal and inguinal areas of the mouse were shaved, the mouse positioned on its back, and the skin over the femoral vasculature was resected to expose the vasculature of interest. The jugular vein was cannulated using a piece of stretched PE10 tubing filled with saline containing 50 U heparin/mL.
After the mouse was prepared, a 10 μl bolus IV injection of ICG was administered, followed by an IV injection of 50 μl of saline solution. To prepare the bolus, 4 μg/ml of clinical grade ICG (CARDIO-GREEN™) was dissolved in sterile aqueous solvent within one hour of injection. All injections were administered via the cannula established in the jugular vein. The saline was used to flush the line and to ensure passage of an intact bolus through the femoral vasculature, producing a sharp wavefront.
Image analysis was performed using XCAP for Windows 95/98/NT version 1.0 (EPIX Inc., Buffalo Grove, Ill.). The image processing algorithm included the following steps.
1. Selection of vessels of interest. The anatomy of the vasculature varies between animals. Consequently, it was necessary to develop criteria for the selection of an area of interest. This process began with the positioning of the camera. The camera was positioned so that the field of view included the femoral artery and its branches. For the purposes of image analysis, the vessels of interest were the femoral artery and the branches that provided the highest resolution and the greatest degree of branching, usually tertiary or quaternary.
2. Calibration. The positioning of the camera with respect to the area being imaged varied with each animal, and it was therefore necessary to calibrate the camera for every image collected. A small diameter (320 μm) capillary tube (TSP320450; Polymicro Technologies, LLC, Phoenix, Ariz.) filled with ICG was used to calibrate the images. The image processing software includes a built-in calibration function that allows the specification of a set of pixel co-ordinates and the assignment of a user-defined value to the distance between these co-ordinates. The software's edge detector was used to determine the co-ordinates of the edges of the dye fluorescing in the capillary tube. The inner diameter of the capillary tube, in microns, was then assigned to the “length” of the distance between these points. Because this is a built-in feature of the software, all subsequent measurements in all frames of the image were stated in microns, rather than pixel units. […]

The structures appear in SMILES notation.

As to `CC(=O)OCC[N+](C)(C)C` [Acetylcholine, acetylcholine], the “Vessel Diameter (microns)” value (Primary vessel, acetylcholine concentration 0.01 μM) was 58.2 ± 1.3 microns; the “Vessel Diameter (microns)” value (Primary vessel, acetylcholine concentration 1.0 μM) is 58.3 ± 1.5 microns; the “Vessel Diameter (microns)” value (Primary vessel, acetylcholine concentration 10.0 μM) was 64.6 ± 1.5 microns; the “Vessel Diameter (microns)” value (Primary vessel, acetylcholine concentration .01 μM) turned out to be 61.5 ± 1.7 microns; the “Vessel Diameter (microns)” value (Secondary vessel, acetylcholine concentration 0.01 μM) came to 67.0 ± 1.3 microns; the “Vessel Diameter (microns)” value (Secondary vessel, acetylcholine concentration 1.0 μM) is given as 90.0 ± 1.8 microns. Moreover, the “Vessel Diameter (microns)” value is on record as 75.0 ± 1.4 microns (Secondary vessel, acetylcholine concentration 10.0 μM); 75.1 ± 1.2 microns (Secondary vessel, acetylcholine concentration .01 μM); 42.9 ± 0.6 microns (Tertiary vessel, acetylcholine concentration 0.01 μM); 47.1 ± 1.2 microns (Tertiary vessel, acetylcholine concentration 1.0 μM); 42.9 ± 0.8 microns (Tertiary vessel, acetylcholine concentration 10.0 μM); 44.9 ± 0.6 microns (Tertiary vessel, acetylcholine concentration .01 μM).

The values above are taken from patent publication US7881777B2, “Method and apparatus for performing intra-operative angiography” (National Research Council of Canada, priority 1999, dated 2011).
